Measurements reported in PubChem BioAssay AID1963423 (Molecular Pharmacology Branch, DTP, NCI, 2024).
“And” between values parts separate entries of the source, which are not always exact repeats. Equal values may be shown once.

Test system: 439559-082-T-J2-PDC complex spheroid growth
Test: Anticancer human tumor 439559-082-T-J2-PDC patient-derived colon adenocarcinoma cell line growth inhibition [Asc]
Settings: for viability, T/C: stronger effect = lower value
Method in brief: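 Tumor cells were grown as multicellular spheroids with stromal HUVEC and mesenchymal stem cells and treated singly or in combination. Concentrations fell in half-log steps from the clinical Cmax, or from 10 microM where none was known.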

[1] = curve of first compound, second compound 0.1 µM
[2] = curve of first compound, second compound 0.316 µM
[3] = curve of first compound, second compound 1 µM
[4] = curve of first compound, second compound 3.16 µM
[5] = curve of first compound, second compound 10 µM
[6] = second compound 0.1 µM, first compound 0.0316 µM
[7] = second compound 0.1 µM, first compound 0.1 µM
[8] = second compound 0.1 µM, first compound 0.316 µM
[9] = second compound 0.1 µM, first compound 1 µM
[10] = second compound 0.1 µM, first compound 3.16 µM
[11] = second compound 0.1 µM, first compound 10 µM
[12] = second compound 0.316 µM, first compound 0.0316 µM
[13] = second compound 0.316 µM, first compound 0.1 µM
[14] = second compound 0.316 µM, first compound 0.316 µM
[15] = second compound 0.316 µM, first compound 1 µM
[16] = second compound 0.316 µM, first compound 3.16 µM
[17] = second compound 0.316 µM, first compound 10 µM
[18] = second compound 1 µM, first compound 0.0316 µM
[19] = second compound 1 µM, first compound 0.1 µM
[20] = second compound 1 µM, first compound 0.316 µM
[21] = second compound 1 µM, first compound 1 µM
[22] = second compound 1 µM, first compound 3.16 µM
[23] = second compound 1 µM, first compound 10 µM
[24] = second compound 3.16 µM, first compound 0.0316 µM
[25] = second compound 3.16 µM, first compound 0.1 µM
[26] = second compound 3.16 µM, first compound 0.316 µM
[27] = second compound 3.16 µM, first compound 1 µM
[28] = second compound 3.16 µM, first compound 3.16 µM
[29] = second compound 3.16 µM, first compound 10 µM
[30] = second compound 10 µM, first compound 0.0316 µM
[31] = second compound 10 µM, first compound 0.1 µM
[32] = second compound 10 µM, first compound 0.316 µM
[33] = second compound 10 µM, first compound 1 µM
[34] = second compound 10 µM, first compound 3.16 µM
[35] = second compound 10 µM, first compound 10 µM
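Note: spheroids exposed to agents for 7 days starting day 3 after seeding.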
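Throughout, for viability, T/C: percent of DMSO vehicle control viability with 100% = vehicle.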

C=CC(=O)N1CCN(c2nc(=O)n(-c3c(C)ccnc3C(C)C)c3nc(-c4c(O)cccc4F)c(F)cc23)C(C)C1 (centres undefined) + Cc1c(S(C)(=O)=O)c(-c2cc(F)cc(N3CCN(c4ccc(NS(=O)(=O)c5ccc(NC(CCN6CCC(C(=O)OCCCP(=O)(O)O)CC6)CSc6ccccc6)c(S(=O)(=O)C(F)(F)F)c5)cc4)CC3)c2)c(-c2ccc(Cl)cc2)n1C(C)C was tested, and the IC50 [1] was > 10 µM, the IC50 [2] was > 10 µM and the IC50 [3] was > 10 µM. For the same compound, the IC50 [4] was > 10 µM, the IC50 [5] was > 10 µM and the viability, T/C [6] was 97.6%. It also gave a viability, T/C [7] of 112%, a viability, T/C [8] of 99.2% and a viability, T/C [9] of 97.4%. The viability, T/C [10] was 109%, the viability, T/C [11] was 99.8% and the viability, T/C [12] was 93.5%. It also gave a viability, T/C [13] of 107%, a viability, T/C [14] of 108% and a viability, T/C [15] of 98.2%. For the same compound, the viability, T/C [16] was 96.6%, the viability, T/C [17] was 88.3% and the viability, T/C [18] was 99.1%. It also gave a viability, T/C [19] of 102%, a viability, T/C [20] of 105% and a viability, T/C [21] of 88.9%. It also gave a viability, T/C [22] of 89.8%, a viability, T/C [23] of 91.6% and a viability, T/C [24] of 99.1%. For the same compound, the viability, T/C [25] was 101%, the viability, T/C [26] was 103% and the viability, T/C [27] was 89.1%. The viability, T/C [28] was 88.1%, the viability, T/C [29] was 94.6% and the viability, T/C [30] was 78%. For the same compound, the viability, T/C [31] was 80%, the viability, T/C [32] was 80.5% and the viability, T/C [33] was 73.8%. For the same compound, the viability, T/C [34] was 87.6% and the viability, T/C [35] was 81.3%.
In the case of C#Cc1c(F)ccc2cc(O)cc(-c3ncc4c(N5CC6CCC(C5)N6)nc(OCC56CCCN5CC(F)C6)nc4c3F)c12 (centres undefined), the viability, T/C (compound 0.0316 µM) is reported as 95.9% and 87.4% and 92.5%, the viability, T/C (compound 0.1 µM) is reported as 77.6% and 80.5% and 82.3% and the viability, T/C (compound 0.316 µM) is reported as 68.5% and 59.4% and 65.4%. The viability, T/C (compound 1 µM) was 64.9% and 53.9% and 55.5%, the viability, T/C (compound 3.16 µM) was 55.5% and 55.7% and 51.2% and the viability, T/C (compound 10 µM) was 41% and 37.7% and 39.6%. For the same compound, the IC50 (curve of compound) was 4.3 µM and 2.36 µM and 2.43 µM.
With O=C(c1ccc(F)c(F)c1Nc1ccc(I)cc1F)N1CC(O)([C@@H]2CCCCN2)C1 the viability, T/C (compound 0.00316 µM) was 101% and 106% (2×), the viability, T/C (compound 0.01 µM) was 95.1% and 106% and 95.4% and the viability, T/C (compound 0.0316 µM) was 96.9% and 81.6% and 88.7%. The viability, T/C (compound 0.1 µM) was 63.6% and 60.9% and 69.5%, the viability, T/C (compound 0.316 µM) was 58% and 50.6% and 49.3% and the viability, T/C (compound 1 µM) was 13.8% and 24.2% and 28.6%. For the same compound, the IC50 (curve of compound) was 0.334 µM and 0.24 µM and 0.307 µM.
For O=C(c1cc(Cc2n[nH]c(=O)c3ccccc23)ccc1F)N1CCN(C(=O)C2CC2)CC1 + Cc1c(S(C)(=O)=O)c(-c2cc(F)cc(N3CCN(c4ccc(NS(=O)(=O)c5ccc(NC(CCN6CCC(C(=O)OCCCP(=O)(O)O)CC6)CSc6ccccc6)c(S(=O)(=O)C(F)(F)F)c5)cc4)CC3)c2)c(-c2ccc(Cl)cc2)n1C(C)C, the IC50 [1] was > 10 µM, the IC50 [2] was > 10 µM and the IC50 [3] was > 10 µM. The IC50 [4] was > 10 µM, the IC50 [5] was > 10 µM and the viability, T/C [6] was 101%. For the same compound, the viability, T/C [7] was 110%, the viability, T/C [8] was 98.4% and the viability, T/C [9] was 92.6%. It also gave a viability, T/C [10] of 98.1%, a viability, T/C [11] of 90.9% and a viability, T/C [12] of 86%. The viability, T/C [13] was 102%, the viability, T/C [14] was 109% and the viability, T/C [15] was 92.5%. The viability, T/C [16] was 99%, the viability, T/C [17] was 90.3% and the viability, T/C [18] was 91.3%. The viability, T/C [19] was 101%, the viability, T/C [20] was 105% and the viability, T/C [21] was 93%. It also gave a viability, T/C [22] of 92.4%, a viability, T/C [23] of 92.8% and a viability, T/C [24] of 93%. The viability, T/C [25] was 101%, the viability, T/C [26] was 96.1% and the viability, T/C [27] was 80%. For the same compound, the viability, T/C [28] was 98.4%, the viability, T/C [29] was 86.1% and the viability, T/C [30] was 71.6%. It also gave a viability, T/C [31] of 73.6%, a viability, T/C [32] of 92.2% and a viability, T/C [33] of 84.1%. It also gave a viability, T/C [34] of 76.5% and a viability, T/C [35] of 72.7%.
